Laboratory results reported in patent publication US10245240B2, “Treatment of prostate carcinoma” (Pellficure Pharmaceuticals, Inc., priority 2010, dated 2019).

What follows are compounds tested on PTEN-P2/GFP prostate cancer cells (assay: Effect of naphthoquinone analogs on PTEN-P2/GFP cell proliferation (CellTiter96 formazan-based viability assay)). Conditions: 2 μM, 24 hrs, medium with 10% FBS and DHT; listed as 2,6-di-tert-butyl-1,4-naphtoquinone.
Procedure: Cell culture: PTEN-P2/GFP are cells that stably express histone H2B-GFP fusion protein.
Cells are grown in DMEM medium containing 10% FBS, 2 mM L-glutamine, 100 U/ml penicillin/100 μg/ml streptomycin, insulin-selenium-transferrin (5 μg/ml insulin), and DHT 10^−8 M final. Androgen withdrawal is achieved by keeping the cells in phenol red-free DMEM medium containing 10% charcoal-treated FBS and the same supplements as in the normal medium except for DHT. Cells are maintained in a humidified incubator at 37° C. and 5% CO2. G418 (100 μg/ml) is added to maintain stable expression of H2B-GFP.
PTEN-P2/GFP prostate cancer cells were plated at a density of 8000 cells/well in 96-well plates (triplicates) in growing medium containing 10% Fetal Bovine Serum and DHT. The next day, increasing concentrations of a naphthoquinone analog (diluted from 10 mM DMSO stock solutions) were incubated for 24 hrs. Cell viability was determined by the formazan-based cytotoxicity assay “CellTiter96Aquaeous nonradioactive proliferation assay” (Promega).

Row | Compound | % viability [%]
1 | CC(C)(C)C1=CC(=O)c2cc(C(C)(C)C)ccc2C1=O [2,6-di-tert-butyl-1,4-naphthoquinone] | 104.5

Same assay, conditions: 3 μM, 24 hrs, medium with 10% FBS and DHT; listed as 2,6-di-tert-butyl-1,4-naphtoquinone

Row | Compound | % viability [%]
2 | CC(C)(C)C1=CC(=O)c2cc(C(C)(C)C)ccc2C1=O [2,6-di-tert-butyl-1,4-naphthoquinone] | 104.7

Same assay, conditions: 4 μM, 24 hrs, medium with 10% FBS and DHT; listed as 2,6-di-tert-butyl-1,4-naphtoquinone

Row | Compound | % viability [%]
3 | CC(C)(C)C1=CC(=O)c2cc(C(C)(C)C)ccc2C1=O [2,6-di-tert-butyl-1,4-naphthoquinone] | 103.0

Same assay, conditions: 5 μM, 24 hrs, medium with 10% FBS and DHT; listed as 2,6-di-tert-butyl-1,4-naphtoquinone

Row | Compound | % viability [%]
4 | CC(C)(C)C1=CC(=O)c2cc(C(C)(C)C)ccc2C1=O [2,6-di-tert-butyl-1,4-naphthoquinone] | 104.0

Same assay, conditions: 7 μM, 24 hrs, medium with 10% FBS and DHT; listed as 2,6-di-tert-butyl-1,4-naphtoquinone

Row | Compound | % viability [%]
5 | CC(C)(C)C1=CC(=O)c2cc(C(C)(C)C)ccc2C1=O [2,6-di-tert-butyl-1,4-naphthoquinone] | 102.8

Same assay, conditions: 10 μM, 24 hrs, medium with 10% FBS and DHT; listed as 2,6-di-tert-butyl-1,4-naphtoquinone

Row | Compound | % viability [%]
6 | CC(C)(C)C1=CC(=O)c2cc(C(C)(C)C)ccc2C1=O [2,6-di-tert-butyl-1,4-naphthoquinone] | 102.2

Same assay, conditions: 25 μM, 24 hrs, medium with 10% FBS and DHT; listed as 2,6-di-tert-butyl-1,4-naphtoquinone

Row | Compound | % viability [%]
7 | CC(C)(C)C1=CC(=O)c2cc(C(C)(C)C)ccc2C1=O [2,6-di-tert-butyl-1,4-naphthoquinone] | 102.9

Same assay, conditions: 50 μM, 24 hrs, medium with 10% FBS and DHT; listed as 2,6-di-tert-butyl-1,4-naphtoquinone

Row | Compound | % viability [%]
8 | CC(C)(C)C1=CC(=O)c2cc(C(C)(C)C)ccc2C1=O [2,6-di-tert-butyl-1,4-naphthoquinone] | 92.9

Same assay, conditions: Mus musculus, 24 h

Row | Compound | IC50 [µM] | viability at 1 µM [%] | viability at 2 µM [%] | viability at 3 µM [%] | viability at 4 µM [%] | viability at 5 µM [%] | viability at 7 µM [%] | viability at 10 µM [%] | viability at 25 µM [%] | viability at 50 µM [%]
9 | CC(C)=CCC1=C(O)C(=O)c2ccccc2C1=O [Lapachol] | > 50 |  |  |  |  |  |  |  |  | 
10 | O=C1C=CC(=O)c2ccccc21 [1,4-naphthoquinone] | 24.1 |  |  |  |  |  |  |  |  | 
11 | COC1=C(OC)C(=O)c2ccccc2C1=O [DMNQ, 2,3-Dimethoxy-1,4-naphthoquinone] | 7.35 |  |  |  |  |  |  |  |  | 
12 | O=C1C(Cl)=C(Cl)C(=O)c2ccccc21 [Dichlon] | 37.8 | 96.5 | 95.6 | 92.3 | 92.2 | 91.8 | 99.3 | 87.1 | 89.2 | 4.9
13 | O=C1C=CC(=O)c2c(O)ccc(O)c21 [Naphthazarin] | 1.65 | 73.4 | 36.4 | 8.9 | 1.5 | 1.7 | 2.2 | 2.4 | 5.4 | 9.1
14 | O=C1C(SCCO)=C(SCCO)C(=O)c2ccccc21 [NSC 95397, 2,3-Bis[(2-hydroxyethyl)thio]-1,4-naphthoquinone] | 6.2 |  |  |  |  |  |  |  |  | 
15 | COC1=CC(=O)c2ccccc2C1=O [2-methoxy-1,4-naphthoquinone] | 8.95 |  |  |  |  |  |  |  |  | 
16 | O=C1C=C(O)C(=O)c2ccccc21 [Lawsone] | > 50 |  |  |  |  |  |  |  |  | 
17 | O=C1C(O)=C(C2=C(O)C(=O)c3ccccc3C2=O)C(=O)c2ccccc21 [Lawsone dimer] | > 50 |  |  |  |  |  |  |  |  | 
18 | CC1=CC(=O)c2ccccc2C1=O [Menadione, menadione] | 14.5 |  |  |  |  |  |  |  |  | 
19 | O=C1C=CC(=O)c2c(O)cccc21 [Juglone] | 5.3 |  |  |  |  |  |  |  |  | 

Same assay, conditions: Mus musculus, 24 h, 1 μM, medium with 10% FBS and DHT

Row | Compound | viability at 1 µM [%]
20 | CC(C)=CCC1=C(O)C(=O)c2ccccc2C1=O [Lapachol] | 106
21 | O=C1C=CC(=O)c2ccccc21 [1,4-naphthoquinone] | 100
22 | COC1=C(OC)C(=O)c2ccccc2C1=O [DMNQ, 2,3-Dimethoxy-1,4-naphthoquinone] | 95
23 | O=C1C(SCCO)=C(SCCO)C(=O)c2ccccc21 [NSC 95397, 2,3-Bis[(2-hydroxyethyl)thio]-1,4-naphthoquinone] | 104
24 | CC(C)(C)C1=CC(=O)c2cc(C(C)(C)C)ccc2C1=O [2,6-di-tert-butyl-1,4-naphthoquinone] | 104
25 | COC1=CC(=O)c2ccccc2C1=O [2-methoxy-1,4-naphthoquinone] | 93.1
26 | O=C1C=C(O)C(=O)c2ccccc21 [Lawsone] | 90.1
27 | O=C1C(O)=C(C2=C(O)C(=O)c3ccccc3C2=O)C(=O)c2ccccc21 [Lawsone dimer] | 98.3
28 | CC1=CC(=O)c2ccccc2C1=O [Menadione, menadione] | 95
29 | O=C1C=CC(=O)c2c(O)cccc21 [Juglone] | 90.7

Same assay, conditions: Mus musculus, 24 h, 2 μM, medium with 10% FBS and DHT

Row | Compound | viability at 2 µM [%]
30 | CC(C)=CCC1=C(O)C(=O)c2ccccc2C1=O [Lapachol] | 105
31 | O=C1C=CC(=O)c2ccccc21 [1,4-naphthoquinone] | 97
32 | COC1=C(OC)C(=O)c2ccccc2C1=O [DMNQ, 2,3-Dimethoxy-1,4-naphthoquinone] | 91
33 | O=C1C(SCCO)=C(SCCO)C(=O)c2ccccc21 [NSC 95397, 2,3-Bis[(2-hydroxyethyl)thio]-1,4-naphthoquinone] | 101
34 | COC1=CC(=O)c2ccccc2C1=O [2-methoxy-1,4-naphthoquinone] | 88.4
35 | O=C1C=C(O)C(=O)c2ccccc21 [Lawsone] | 85.1
36 | O=C1C(O)=C(C2=C(O)C(=O)c3ccccc3C2=O)C(=O)c2ccccc21 [Lawsone dimer] | 98.6
37 | CC1=CC(=O)c2ccccc2C1=O [Menadione, menadione] | 93.1
38 | O=C1C=CC(=O)c2c(O)cccc21 [Juglone] | 85.1

Same assay, conditions: Mus musculus, 24 h, 3 μM, medium with 10% FBS and DHT

Row | Compound | viability at 3 µM [%]
39 | CC(C)=CCC1=C(O)C(=O)c2ccccc2C1=O [Lapachol] | 102
40 | O=C1C=CC(=O)c2ccccc21 [1,4-naphthoquinone] | 93.9
41 | COC1=C(OC)C(=O)c2ccccc2C1=O [DMNQ, 2,3-Dimethoxy-1,4-naphthoquinone] | 88.5
42 | O=C1C(SCCO)=C(SCCO)C(=O)c2ccccc21 [NSC 95397, 2,3-Bis[(2-hydroxyethyl)thio]-1,4-naphthoquinone] | 86.6
43 | COC1=CC(=O)c2ccccc2C1=O [2-methoxy-1,4-naphthoquinone] | 86.9
44 | O=C1C=C(O)C(=O)c2ccccc21 [Lawsone] | 81.3
45 | O=C1C(O)=C(C2=C(O)C(=O)c3ccccc3C2=O)C(=O)c2ccccc21 [Lawsone dimer] | 97.4
46 | CC1=CC(=O)c2ccccc2C1=O [Menadione, menadione] | 90.2
47 | O=C1C=CC(=O)c2c(O)cccc21 [Juglone] | 80.6

Same assay, conditions: Mus musculus, 24 h, 4 μM, medium with 10% FBS and DHT

Row | Compound | viability at 4 µM [%]
48 | CC(C)=CCC1=C(O)C(=O)c2ccccc2C1=O [Lapachol] | 103
49 | O=C1C=CC(=O)c2ccccc21 [1,4-naphthoquinone] | 90.4
50 | COC1=C(OC)C(=O)c2ccccc2C1=O [DMNQ, 2,3-Dimethoxy-1,4-naphthoquinone] | 85.9
51 | O=C1C(SCCO)=C(SCCO)C(=O)c2ccccc21 [NSC 95397, 2,3-Bis[(2-hydroxyethyl)thio]-1,4-naphthoquinone] | 68.4
52 | COC1=CC(=O)c2ccccc2C1=O [2-methoxy-1,4-naphthoquinone] | 85
53 | O=C1C=C(O)C(=O)c2ccccc21 [Lawsone] | 82.5
54 | O=C1C(O)=C(C2=C(O)C(=O)c3ccccc3C2=O)C(=O)c2ccccc21 [Lawsone dimer] | 95.1
55 | CC1=CC(=O)c2ccccc2C1=O [Menadione, menadione] | 93.5
56 | O=C1C=CC(=O)c2c(O)cccc21 [Juglone] | 80.5

Same assay, conditions: Mus musculus, 24 h, 5 μM, medium with 10% FBS and DHT

Row | Compound | viability at 5 µM [%]
57 | CC(C)=CCC1=C(O)C(=O)c2ccccc2C1=O [Lapachol] | 99.8
58 | O=C1C=CC(=O)c2ccccc21 [1,4-naphthoquinone] | 90.1
59 | COC1=C(OC)C(=O)c2ccccc2C1=O [DMNQ, 2,3-Dimethoxy-1,4-naphthoquinone] | 85.3
60 | O=C1C(SCCO)=C(SCCO)C(=O)c2ccccc21 [NSC 95397, 2,3-Bis[(2-hydroxyethyl)thio]-1,4-naphthoquinone] | 53.8
61 | COC1=CC(=O)c2ccccc2C1=O [2-methoxy-1,4-naphthoquinone] | 82.5
62 | O=C1C=C(O)C(=O)c2ccccc21 [Lawsone] | 80.4
63 | O=C1C(O)=C(C2=C(O)C(=O)c3ccccc3C2=O)C(=O)c2ccccc21 [Lawsone dimer] | 96.8
64 | CC1=CC(=O)c2ccccc2C1=O [Menadione, menadione] | 89.4
65 | O=C1C=CC(=O)c2c(O)cccc21 [Juglone] | 58.2

Same assay, conditions: Mus musculus, 24 h, 7 μM, medium with 10% FBS and DHT

Row | Compound | viability at 7 µM [%]
66 | CC(C)=CCC1=C(O)C(=O)c2ccccc2C1=O [Lapachol] | 99.7
67 | O=C1C=CC(=O)c2ccccc21 [1,4-naphthoquinone] | 88.7
68 | COC1=C(OC)C(=O)c2ccccc2C1=O [DMNQ, 2,3-Dimethoxy-1,4-naphthoquinone] | 58.3
69 | O=C1C(SCCO)=C(SCCO)C(=O)c2ccccc21 [NSC 95397, 2,3-Bis[(2-hydroxyethyl)thio]-1,4-naphthoquinone] | 47.1
70 | COC1=CC(=O)c2ccccc2C1=O [2-methoxy-1,4-naphthoquinone] | 67.2
71 | O=C1C=C(O)C(=O)c2ccccc21 [Lawsone] | 80.3
72 | O=C1C(O)=C(C2=C(O)C(=O)c3ccccc3C2=O)C(=O)c2ccccc21 [Lawsone dimer] | 96.1
73 | CC1=CC(=O)c2ccccc2C1=O [Menadione, menadione] | 94
74 | O=C1C=CC(=O)c2c(O)cccc21 [Juglone] | 2.3

Same assay, conditions: Mus musculus, 24 h, 10 μM, medium with 10% FBS and DHT

Row | Compound | viability at 10 µM [%]
75 | CC(C)=CCC1=C(O)C(=O)c2ccccc2C1=O [Lapachol] | 99.6
76 | O=C1C=CC(=O)c2ccccc21 [1,4-naphthoquinone] | 83
77 | COC1=C(OC)C(=O)c2ccccc2C1=O [DMNQ, 2,3-Dimethoxy-1,4-naphthoquinone] | 2.4
78 | O=C1C(SCCO)=C(SCCO)C(=O)c2ccccc21 [NSC 95397, 2,3-Bis[(2-hydroxyethyl)thio]-1,4-naphthoquinone] | 36.3
79 | COC1=CC(=O)c2ccccc2C1=O [2-methoxy-1,4-naphthoquinone] | 43.5
80 | O=C1C=C(O)C(=O)c2ccccc21 [Lawsone] | 83.1
81 | O=C1C(O)=C(C2=C(O)C(=O)c3ccccc3C2=O)C(=O)c2ccccc21 [Lawsone dimer] | 98.6
82 | CC1=CC(=O)c2ccccc2C1=O [Menadione, menadione] | 77.5
83 | O=C1C=CC(=O)c2c(O)cccc21 [Juglone] | 1.1

Same assay, conditions: Mus musculus, 24 h, 25 μM, medium with 10% FBS and DHT

Row | Compound | viability at 25 µM [%]
84 | CC(C)=CCC1=C(O)C(=O)c2ccccc2C1=O [Lapachol] | 96.2
85 | O=C1C=CC(=O)c2ccccc21 [1,4-naphthoquinone] | 47.3
86 | COC1=C(OC)C(=O)c2ccccc2C1=O [DMNQ, 2,3-Dimethoxy-1,4-naphthoquinone] | 0.9
87 | O=C1C(SCCO)=C(SCCO)C(=O)c2ccccc21 [NSC 95397, 2,3-Bis[(2-hydroxyethyl)thio]-1,4-naphthoquinone] | 15.1
88 | COC1=CC(=O)c2ccccc2C1=O [2-methoxy-1,4-naphthoquinone] | 0.3
89 | O=C1C=C(O)C(=O)c2ccccc21 [Lawsone] | 87
90 | O=C1C(O)=C(C2=C(O)C(=O)c3ccccc3C2=O)C(=O)c2ccccc21 [Lawsone dimer] | 99.4
91 | CC1=CC(=O)c2ccccc2C1=O [Menadione, menadione] | 2.4
92 | O=C1C=CC(=O)c2c(O)cccc21 [Juglone] | 2.5

Same assay, conditions: Mus musculus, 24 h, 50 μM, medium with 10% FBS and DHT

Row | Compound | viability at 50 µM [%]
93 | CC(C)=CCC1=C(O)C(=O)c2ccccc2C1=O [Lapachol] | 86.1
94 | O=C1C=CC(=O)c2ccccc21 [1,4-naphthoquinone] | 0.1
95 | COC1=C(OC)C(=O)c2ccccc2C1=O [DMNQ, 2,3-Dimethoxy-1,4-naphthoquinone] | 0.8
96 | O=C1C(SCCO)=C(SCCO)C(=O)c2ccccc21 [NSC 95397, 2,3-Bis[(2-hydroxyethyl)thio]-1,4-naphthoquinone] | 4.8
97 | O=C1C=C(O)C(=O)c2ccccc21 [Lawsone] | 96
98 | O=C1C(O)=C(C2=C(O)C(=O)c3ccccc3C2=O)C(=O)c2ccccc21 [Lawsone dimer] | 97.9
99 | CC1=CC(=O)c2ccccc2C1=O [Menadione, menadione] | 2.9
100 | O=C1C=CC(=O)c2c(O)cccc21 [Juglone] | 5.3
